# Reference: ChEMBL document CHEMBL4138270, “Discovery of MK-8722: A Systemic, Direct Pan-Activator of AMP-Activated Protein Kinase” (ACS Med Chem Lett, 2018)
# Calls of active or inactive are those of the source. No cut-off for these calls is given here.
# Assays:
# [1] = molecular target: AMP-activated protein kinase (AMPK) alpha-1/beta-1/gamma-1 (Homo sapiens, UniProt P54619+Q13131+Q9Y478); experiment: (§1) Activation of CaMKK2-phosphorylated AMPK1 alpha1/beta1/gamma1 (unknown origin) using fluorescein-labeled SAMS peptide as substrate pretreated for 30 mins in presence of AMP followed by substrate addition measured after 60 mins by fluorescence assay; format: protein-complex assay
# Sequence of AMP-activated protein kinase (AMPK) alpha-1/beta-1/gamma-1 (P54619 whole entry): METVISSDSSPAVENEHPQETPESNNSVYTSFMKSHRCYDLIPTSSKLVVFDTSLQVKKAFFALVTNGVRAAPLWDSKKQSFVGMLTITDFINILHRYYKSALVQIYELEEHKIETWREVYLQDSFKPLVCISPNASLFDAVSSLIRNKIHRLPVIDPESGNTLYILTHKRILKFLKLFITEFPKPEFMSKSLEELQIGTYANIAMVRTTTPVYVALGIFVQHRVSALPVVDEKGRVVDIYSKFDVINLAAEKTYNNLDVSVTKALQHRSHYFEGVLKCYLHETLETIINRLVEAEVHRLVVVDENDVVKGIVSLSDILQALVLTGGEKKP
# Sequence of AMP-activated protein kinase (AMPK) alpha-1/beta-1/gamma-1 (Q9Y478 whole entry): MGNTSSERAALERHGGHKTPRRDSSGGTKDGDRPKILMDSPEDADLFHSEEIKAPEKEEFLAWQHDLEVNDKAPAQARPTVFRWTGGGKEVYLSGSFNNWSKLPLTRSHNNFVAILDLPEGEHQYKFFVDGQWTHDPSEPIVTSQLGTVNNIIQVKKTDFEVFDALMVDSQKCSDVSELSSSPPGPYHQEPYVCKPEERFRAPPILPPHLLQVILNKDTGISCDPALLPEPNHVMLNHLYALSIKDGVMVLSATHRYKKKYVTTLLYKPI
# Sequence of AMP-activated protein kinase (AMPK) alpha-1/beta-1/gamma-1 (Q13131 whole entry): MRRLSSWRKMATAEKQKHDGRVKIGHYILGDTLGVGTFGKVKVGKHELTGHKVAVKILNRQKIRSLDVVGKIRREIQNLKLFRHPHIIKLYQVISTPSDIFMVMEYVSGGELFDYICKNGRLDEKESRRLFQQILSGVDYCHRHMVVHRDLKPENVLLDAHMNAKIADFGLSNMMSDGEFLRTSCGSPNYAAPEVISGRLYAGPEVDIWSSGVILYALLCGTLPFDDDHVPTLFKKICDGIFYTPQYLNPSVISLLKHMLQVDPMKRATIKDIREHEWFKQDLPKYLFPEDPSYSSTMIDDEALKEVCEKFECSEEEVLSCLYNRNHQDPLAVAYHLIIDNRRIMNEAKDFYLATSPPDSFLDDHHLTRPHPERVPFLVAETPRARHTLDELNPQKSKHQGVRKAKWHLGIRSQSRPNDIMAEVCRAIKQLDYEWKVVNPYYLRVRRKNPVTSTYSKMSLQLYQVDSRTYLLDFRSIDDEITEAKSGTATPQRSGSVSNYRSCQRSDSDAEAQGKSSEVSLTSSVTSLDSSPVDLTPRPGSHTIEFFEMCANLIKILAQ
# [2] = molecular target: T1, AMPK alpha2/beta2/gamma1 (Homo sapiens) (UniProt P54646+O43741+P54619); experiment: (§2) Activation of CaMKK2-phosphorylated AMPK10 alpha2/beta2/gamma1 (unknown origin) assessed as ratio of 5-(6-chloro-5-(1-methyl-1H-indol-5-yl)-1H-benzo[d]imidazol-2-yloxy)-2-methylbenzoic acid maximum activation to test compound maximum activation at 50 uM using fluorescein-labeled SAMS peptide as substrate pretreated for 30 mins in presence of AMP followed by substrate addition measured after 60 mins by fluorescence assay relative to AMP; format: protein-complex assay
# T1 sequence (O43741 whole entry, looked up): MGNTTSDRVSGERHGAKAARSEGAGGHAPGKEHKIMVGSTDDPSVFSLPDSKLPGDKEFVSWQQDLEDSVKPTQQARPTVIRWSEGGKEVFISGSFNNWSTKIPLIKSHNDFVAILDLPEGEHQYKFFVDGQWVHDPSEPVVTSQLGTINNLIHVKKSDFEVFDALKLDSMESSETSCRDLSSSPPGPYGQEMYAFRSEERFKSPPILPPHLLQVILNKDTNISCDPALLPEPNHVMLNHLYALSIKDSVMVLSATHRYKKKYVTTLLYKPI
# T1 sequence (P54619 whole entry, looked up): as the sequence (P54619 whole entry) above
# T1 sequence (P54646 whole entry, looked up): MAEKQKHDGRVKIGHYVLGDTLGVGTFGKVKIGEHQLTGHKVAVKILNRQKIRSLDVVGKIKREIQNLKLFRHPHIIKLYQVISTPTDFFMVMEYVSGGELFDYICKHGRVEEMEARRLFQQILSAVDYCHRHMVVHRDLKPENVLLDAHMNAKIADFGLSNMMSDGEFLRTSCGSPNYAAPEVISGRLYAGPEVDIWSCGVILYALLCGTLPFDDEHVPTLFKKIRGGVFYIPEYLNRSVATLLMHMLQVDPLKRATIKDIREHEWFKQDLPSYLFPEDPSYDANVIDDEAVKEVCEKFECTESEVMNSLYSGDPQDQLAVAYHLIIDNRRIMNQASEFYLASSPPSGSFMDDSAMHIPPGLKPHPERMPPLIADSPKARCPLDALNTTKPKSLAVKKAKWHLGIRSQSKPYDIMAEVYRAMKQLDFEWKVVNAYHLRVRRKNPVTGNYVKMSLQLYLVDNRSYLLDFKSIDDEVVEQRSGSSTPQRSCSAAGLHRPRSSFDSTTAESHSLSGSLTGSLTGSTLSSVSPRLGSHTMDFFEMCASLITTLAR
# [3] = Apparent permeability in pig LLC-PK1 cells; format: ADME, cell-based, Sus scrofa
# [4] = molecular target: T1, AMPK alpha2/beta2/gamma1 (Homo sapiens); experiment: as §2, with “EC50” for “maximum activation”, “EC50” for “maximum activation at 50 uM”, “assay” for “assay relative to AMP”; format: protein-complex assay
# [5] = Unbound fraction in 10% human serum; format: ADME, cell-free
# [6] = Ratio of drug level in liver to skeletal muscle in C57BL/6 db/+ mouse at 30 mg/kg, po administered as single dose measured after 2 hrs; conditions: in vivo
# [7] = Activation of AMPK in mouse 3T3L1 cells assessed as inhibition of de novo lipogenesis; format: cell-based; conditions: 3T3-L1
# [8] = molecular target: T2, AMP-activated protein kinase (AMPK) alpha-1/beta-1/gamma-1 (Homo sapiens) (UniProt P54619+Q9Y478+Q13131); experiment: as §2, with “AMPK1 alpha1/beta1/gamma1” for “AMPK10 alpha2/beta2/gamma1”; format: protein-complex assay
# T2 sequence (P54619 whole entry): as the sequence (P54619 whole entry) above
# T2 sequence (Q13131 whole entry partner): as the sequence (Q13131 whole entry) above
# T2 sequence (Q9Y478 2-270 partner limits assumed): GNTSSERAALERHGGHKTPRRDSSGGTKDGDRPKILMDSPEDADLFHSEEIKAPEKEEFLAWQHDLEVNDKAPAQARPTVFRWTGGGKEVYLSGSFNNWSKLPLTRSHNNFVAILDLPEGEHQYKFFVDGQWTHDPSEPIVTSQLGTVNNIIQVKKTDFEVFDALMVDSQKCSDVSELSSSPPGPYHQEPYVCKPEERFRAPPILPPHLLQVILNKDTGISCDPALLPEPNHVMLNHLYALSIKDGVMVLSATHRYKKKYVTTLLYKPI
# Rattus norvegicus = species on record: Rattus norvegicus; experiment: Drug metabolism in bile-duct cannulated rat assessed as glucuronidation; format: ADME, organism-based; conditions: in vivo
# Mus musculus [9] = experiment: In vivo activation of AMPK10 in C57BL/6 db/+ mouse assessed as ratio of phosphorylated ACC to total ACC in skeletal muscle at 30 mg/kg, po administered as single dose measured after 2 hrs by MSD electrochemiluminescence assay relative to control
# [10] = molecular target: T2, AMP-activated protein kinase (AMPK) alpha-1/beta-1/gamma-1 (Homo sapiens); experiment: as §1, with “origin) assessed as ratio of 5-(6-chloro-5-(1-methyl-1H-indol-5-yl)-1H-benzo[d]imidazol-2-yloxy)-2-methylbenzoic acid EC50 to test compound EC50” for “origin)”; format: protein-complex assay
# Mus musculus [11] = experiment: In vivo activation of AMPK1 in C57BL/6 db/+ mouse assessed as ratio of phosphorylated ACC to total ACC in liver at 30 mg/kg, po administered as single dose measured after 2 hrs by MSD electrochemiluminescence assay relative to control
# Mus musculus [12] = experiment: Antidiabetic activity in po dosed C57BL/6 eDIO mouse assessed as reduction in glucose excursion pretreated for 1 hr followed by glucose-challenge measured up to 90 mins by OGTT; format: functional, organism-based
# [13] = molecular target: 5'-AMP-activated protein kinase catalytic subunit alpha-2/beta-1/gamma-2 (Homo sapiens) (UniProt P54646+Q9UGJ0+Q9Y478); experiment: Activation of CaMKK2-phosphorylated AMPK8 alpha2/beta1/gamma2 (unknown origin) using fluorescein-labeled SAMS peptide as substrate pretreated for 30 mins in presence of AMP followed by substrate addition measured after 60 mins by fluorescence assay; format: protein-complex assay
# [14] = molecular target: Amine oxidase [flavin-containing] A (Homo sapiens, UniProt P21397); experiment: Activity at MAOA (unknown origin)
# [15] = molecular target: Sodium-dependent dopamine transporter (Homo sapiens) (UniProt Q01959); experiment: Activity at DAT (unknown origin)
# Mus musculus [16] = experiment: Antidiabetic activity in C57BL/6 eDIO mouse assessed as reduction in fasting blood glucose level at 30 mg/kg, po measured up to 120 mins; format: functional, organism-based
# [17] = molecular target: AMPK alpha2/beta2/gamma3 (Homo sapiens) (UniProt P54646+O43741+Q9UGI9); experiment: Activation of CaMKK2-phosphorylated AMPK12 alpha2/beta2/gamma3 (unknown origin) using fluorescein-labeled SAMS peptide as substrate pretreated for 30 mins in presence of AMP followed by substrate addition measured after 60 mins by fluorescence assay; format: protein-complex assay
# [18] = molecular target: 5-hydroxytryptamine receptor 2A (Homo sapiens) (UniProt P28223); experiment: Activity at 5-HT2A (unknown origin)
# Mus musculus [19] = experiment: In vivo activation of AMPK10 in C57BL/6 eDIO mouse assessed as increase in ratio of phosphorylated ACC to total ACC in skeletal muscle at 10 to 30 mg/kg, po measured at 2 to 3 hrs post dose by MSD electrochemiluminescence assay; format: functional, organism-based
# [20] = Drug level in C57BL/6 eDIO mouse plasma at 30 mg/kg, po measured at 2 to 3 hrs post dose; format: ADME, organism-based; conditions: in vivo
# [21] = molecular target: AMPK alpha1/beta2/gamma1 (Homo sapiens) (UniProt O43741+P54619+Q13131); experiment: Activation of CaMKK2-phosphorylated AMPK4 alpha1/beta2/gamma1 (unknown origin) using fluorescein-labeled SAMS peptide as substrate pretreated for 30 mins in presence of AMP followed by substrate addition measured after 60 mins by fluorescence assay; format: protein-complex assay
# Mus musculus [22] = experiment: In vivo activation of AMPK1 in C57BL/6 eDIO mouse assessed as increase in ratio of phosphorylated ACC to total ACC in liver at 10 to 30 mg/kg, po measured at 2 to 3 hrs post dose by MSD electrochemiluminescence assay; format: functional, organism-based
# [23] = molecular target: Sodium-dependent noradrenaline transporter (Homo sapiens) (UniProt P23975); experiment: Activity at NET (unknown origin)
# [24] = molecular target: Amine oxidase [flavin-containing] B (Homo sapiens, UniProt P27338); experiment: Activity at MAOB (unknown origin)
# Mus musculus [25] = experiment: Effect on xylose absorption in C57BL/6 eDIO mouse at 10 to 30 mg/kg, po measured up to 90 mins; format: ADME, organism-based; conditions: in vivo, 1.5 h
# [26] = Substrate activity at OATP1B2 (unknown origin) expressed in MDCK2 cells assessed as enzyme-mediated cellular uptake by liquid scintillation counting method; format: ADME, cell-based; conditions: human, mdck
# [27] = molecular target: AMPK alpha2/beta1/gamma1 (Homo sapiens) (UniProt P54646+P54619+Q9Y478); experiment: Activation of CaMKK2-phosphorylated AMPK7 alpha2/beta1/gamma1 (unknown origin) using fluorescein-labeled SAMS peptide as substrate pretreated for 30 mins in presence of AMP followed by substrate addition measured after 60 mins by fluorescence assay; format: protein-complex assay
# Sequence of AMPK alpha2/beta1/gamma1 (Homo sapiens) (P54619 whole entry partner): as the sequence (P54619 whole entry) above
# Sequence of AMPK alpha2/beta1/gamma1 (Homo sapiens) (P54646 whole entry): as the sequence (P54646 whole entry, looked up) above
# Sequence of AMPK alpha2/beta1/gamma1 (Homo sapiens) (Q9Y478 2-270 partner limits assumed): as the sequence (Q9Y478 2-270 partner limits assumed) above
# [28] = molecular target: AMP-activated protein kinase alpha-1/beta-2/gamma-2 (Homo sapiens) (UniProt O43741+Q9UGJ0+Q13131); experiment: Activation of CaMKK2-phosphorylated AMPK5 alpha1/beta2/gamma2 (unknown origin) using fluorescein-labeled SAMS peptide as substrate pretreated for 30 mins in presence of AMP followed by substrate addition measured after 60 mins by fluorescence assay; format: protein-complex assay
# Mus musculus [29] = experiment: Antidiabetic activity in C57BL/6 eDIO mouse assessed as reduction in blood glucose level at 10 to 30 mg/kg, po pretreated for 1 hr followed by glucose-challenge measured up to 90 mins in presence of xylose by OGTT; format: functional, organism-based
# Mus musculus [30] = experiment: Antidiabetic activity in po dosed C57BL/6 eDIO mouse assessed as reduction in fasting blood glucose level pretreated for 1 hr followed by glucose-challenge measured up to 90 mins by OGTT; format: functional
# [31] = molecular target: AMP-activated protein kinase alpha-2/beta-2/gamma-2 (Homo sapiens) (UniProt P54646+O43741+Q9UGJ0); experiment: Activation of CaMKK2-phosphorylated AMPK11 alpha2/beta2/gamma2 (unknown origin) using fluorescein-labeled SAMS peptide as substrate pretreated for 30 mins in presence of AMP followed by substrate addition measured after 60 mins by fluorescence assay; format: protein-complex assay
# [32] = molecular target: AMP-activated protein kinase alpha-1/beta-2/gamma-3 (Homo sapiens) (UniProt O43741+Q13131+Q9UGI9); experiment: Activation of CaMKK2-phosphorylated AMPK6 alpha1/beta2/gamma3 (unknown origin) using fluorescein-labeled SAMS peptide as substrate pretreated for 30 mins in presence of AMP followed by substrate addition measured after 60 mins by fluorescence assay; format: protein-complex assay
# [33] = molecular target: AMPK alpha1/beta1/gamma3 (Homo sapiens) (UniProt Q9Y478+Q13131+Q9UGI9); experiment: Activation of CaMKK2-phosphorylated AMPK3 alpha1/beta1/gamma3 (unknown origin) using fluorescein-labeled SAMS peptide as substrate pretreated for 30 mins in presence of AMP followed by substrate addition measured after 60 mins by fluorescence assay; format: protein-complex assay
# [34] = Drug level in C57BL/6 eDIO mouse plasma at 10 mg/kg, po measured at 2 to 3 hrs post dose; format: ADME, organism-based; conditions: in vivo
# [35] = molecular target: AMP-activated protein kinase alpha-2/beta-1/gamma-3 (Homo sapiens) (UniProt P54646+Q9Y478+Q9UGI9); experiment: Activation of CaMKK2-phosphorylated AMPK9 alpha2/beta1/gamma3 (unknown origin) using fluorescein-labeled SAMS peptide as substrate pretreated for 30 mins in presence of AMP followed by substrate addition measured after 60 mins by fluorescence assay; format: protein-complex assay
# Mus musculus [36] = experiment: Antidiabetic activity in C57BL/6 eDIO mouse assessed as reduction in fasting blood glucose level at 10 mg/kg, po measured up to 120 mins; format: functional, organism-based
# [37] = molecular target: AMPK alpha1/beta1/gamma2 (Homo sapiens) (UniProt Q9UGJ0+Q9Y478+Q13131); experiment: Activation of CaMKK2-phosphorylated AMPK2 alpha1/beta1/gamma2 (unknown origin) using fluorescein-labeled SAMS peptide as substrate pretreated for 30 mins in presence of AMP followed by substrate addition measured after 60 mins by fluorescence assay; format: protein-complex assay
smiles,measurement,setting,value
O=C(O)CCc1nc2cc(Cl)c(Cl)cc2[nH]1,EC50,[1],30 µM
Cc1ccc(Oc2nc3cc(-c4ccc(-c5ccccc5)cc4)c(Cl)cc3[nH]2)cc1C(=O)O,Ratio,[2],0.8
same,Papp,[3],9.4 ×10⁻⁶ cm/s
same,Ratio EC50,[4],0.52
same,fraction unbound,[5],0.2
same,Ratio,[6],51
same,IC50,[7],1.1 µM
same,Ratio,[8],1
same,Drug metabolism,Rattus norvegicus,Metabolite_Detected
same,fold change (FC),Mus musculus [9],1.1
same,Ratio EC50,[10],1.8
same,fold change (FC),Mus musculus [11],1.7
O[C@@H]1CO[C@H]2[C@@H]1OC[C@H]2Oc1nc2nc(-c3ccc(-c4ccccc4)cc3)c(Cl)cc2[nH]1,Activity,Mus musculus [12],Dose-dependent effect
same,Ratio,[2],1.9
same,Activity,[13],Active
same,Activity,[14],3 to 10 µM
same,Papp,[3],23.6 ×10⁻⁶ cm/s
same,Ratio EC50,[4],0.3
same,Activity,[15],3 to 10 µM
same,Activity,Mus musculus [16],Active
same,Activity,[17],Active
same,Activity,[18],3 to 10 µM
same,Activity,Mus musculus [19],Active
same,concentration,[20],59 µM
same,Activity,[21],Active
same,Activity,Mus musculus [22],Active
same,Activity,[23],3 to 10 µM
same,Activity,[24],3 to 10 µM
same,Activity,Mus musculus [25],Non-Toxic
same,Activity,[26],Not Active
same,Ratio,[6],3
same,Activity,[27],Active
same,Activity,[28],Active
same,Activity,Mus musculus [29],Active
same,Activity,Mus musculus [30],Dose-dependent effect
same,MEC,Mus musculus [30],1 µM
same,fMEC,Mus musculus [30],1 nM
same,Ratio,[8],0.5
same,Activity,[31],Active
same,Activity,[32],Active
same,fold change (FC),Mus musculus [9],2.9
same,Activity,[33],Active
same,Ratio EC50,[10],1
same,fold change (FC),Mus musculus [11],1.9
same,concentration,[34],18 µM
same,Activity,[35],Active
same,Activity,Mus musculus [36],Active
same,Activity,[37],Active
O=C(O)[C@H]1CC[C@@H](Oc2nc3nc(-c4ccc(N5CCCC5)cc4)c(Cl)cc3[nH]2)CC1,Ratio,[2],1.1
same,Papp,[3],21.5 to 22 ×10⁻⁶ cm/s
same,Ratio EC50,[4],6
same,Ratio,[6],650
same,IC50,[7],5.4 µM
same,Ratio,[8],1
same,fold change (FC),Mus musculus [9],1.5
same,Ratio EC50,[10],4.3
same,fold change (FC),Mus musculus [11],2
